From patent US12186332B2, “Methods for overcoming WNT/beta-catenin anti-cancer resistance in leukemia stem cells” (STOWERS INSTITUTE FOR MEDICAL RESEARCH, priority 2019, dated 2025)

Assays:
pS^552-β-catenin = experiment: FACS for pS552-β-catenin in populations from treated leukemic mice; assay type: in vivo, mouse; conditions: [Low]DXR; 4 days post-treatment; LSCs
Description: Percent of LSC, HSPC or blast cell population expressing pS^552-β-catenin is indicated for each treatment. Numbers indicate mean±SD; n=3-5 per group.
For FACS analysis using PE-conjugated monoclonal anti-pS552-β-catenin antibody, cells were washed twice after cell surface staining, resuspended in 250ul of BD Fixation/Permeabilization® solution, incubated for 20 minutes at 4°, washed 2× with 1 ml of 1×BD Perm/Wash Buffer®, resuspended with 100 ul 1×BD Perm/Wash Buffer®, added […] anti-pS552-β-catenin antibody per 100 ul solution containing up to 3 million cells, incubated 2 hours on ice with rocking (resuspended every 15 minutes), washed 2 times and resuspended in PBS+2% FBS for analysis. BM from β-cat knockout mouse was harvested at 2-3 weeks post-knockout induction and stained alongside other test samples.

[1] = tested on: patient BM with or without chemoresistant pS^552-β-cat^+ LSCs; experiment: 2° PDX recipients treated with low-dose DXR ([Low]nanoDXR); assay type: in vivo, human
Description: (§1) FIG. 12F is the Kaplan-Meier survival curve for 2° PDX recipients treated with vehicle or [Low]nanoDXR. Bone marrow was harvested from 1° recipients of diagnostic BM, transplanted into a larger set of 2° PDX recipients and treated with [Low] NanoDXR starting at day 14 post-transplant and continuing for up to 10 weeks.
as §1, with “12G” for “12F”, “post-chemotherapy” for “diagnostic”
Human CD45^+ and human LSC engraftment was determined after succumbing to leukemia or at experimental endpoint. Graphs indicate frequency (%)+Std. Dev.
as §1, with “12L” for “12F”, “BM (FIG. 12D),” for “BM,”
as §1, with “12M” for “12F”, “BM (FIG. 12E),” for “BM,”
Human CD45^+ and human LSC engraftment was determined after succumbing to leukemia or at experimental endpoint. Graphs indicate frequency (%)+Std. Dev. (N.S.=not significant).
All patient samples were obtained under research ethics board approval with informed consent. Pediatric patient BM was transplanted into NSG mice. When 1° transplant mice succumbed to leukemia, bone marrow was harvested, frozen for later use, and transplanted into a larger set of 2° NSG recipients. […] Health was monitored independently by technicians blinded to any hypothetical outcome. […]

[2] = tested on: LSCs and blast cells of leukemia mice; experiment: Immune-checkpoint blocker treatment / CD8+ T cell depletion in leukemia mice; assay type: in vivo, mouse; conditions: [Low]DXR after anti-CD8 depletion
Description: For immune-checkpoint blocker treatment, 250 μg anti-PD-1 or isotype control (BioXcell) was injected intravenously every other day for a total of 3 injections. For CD8^+ T cell depletion, 2×100 μg and 1×250 μg of anti-CD8a or isotype control (BioXcell) was injected intravenously every other day.

CD8^+ T cells = experiment: FACS of peripheral blood CD8+ T cells in leukemic mice; assay type: in vivo, mouse; conditions: 48 hrs post-treatment
[3] = Pt samples containing chemoresistant pS552-β-cat+ LSCs

COc1cccc2c1C(=O)c1c(O)c3c(c(O)c1C2=O)C[C@@](O)(C(=O)CO)C[C@@H]3O[C@H]1C[C@H](N)[C@H](O)[C@H](C)O1 [DXR, doxorubicin]
pS552-β-catenin expression (pS^552-β-catenin): substantially reduced | leukemia engraftment and LSC frequency compared to vehicle control [1, 3]: reduced leukemia engraftment and LSC frequency | survival compared to vehicle control [1, 3]: significantly improved survival | survival, leukemia engraftment or LSC frequency ([1]; Pt samples lacking chemoresistant pS552-β-cat+ LSCs): no significant difference | effect on LSCs after CD8+ T cell depletion [2]: no longer significantly reduced LSCs | CD8+ T cells in peripheral blood (CD8^+ T cells; [Low]DXR): significant increase | CD8+ T cells in peripheral blood (CD8^+ T cells; clinical-dose DXR): significant reduction
